Experimental data: patent US20020055174A1, “Complex for transferring an anionic substance of interest into a cell” (priority 2000, published 2002)
“Also recorded” adds a separate entry of the source. Bridge positions count the residues as written; N and C are the ends. Ends that are not written are not given here.

Tests used:
[1] = Liposome leakage assay, POPC/cholesterol 3:2 liposomes; conditions: POPC/chol 3:2 liposomes
Protocol: Increasing amounts of the indicated peptides were incubated with POPC/Cholesterol (3:2 mol/mol) liposomes for 30 min at RT. Emitted fluorescence was plotted against peptide concentration. […] B) Liposome leakage activity with complexes of ppTG1 and the plasmid pTG11236 at pH7.
1-Palmitoyl-2-Oleoyl-phosphatidylcholine (POPC) liposomes were prepared by the repeated freeze-thaw method followed by extrusion (Olson et al., 1979, Biochim. Biophys. Acta 557, 19-23). Ten μ-moles of POPC in chloroform were placed in a glass tube and solvent was evaporated under reduced pressure using a Labconco Rapidvap vortex evaporator (Uniequip, Germany). The resulting lipid film was hydrated with 0.5 ml of an aqueous solution of calcein (lOOmM calcein, 3.75 eq. NaOH, 50mM NaCl). The lipid suspension was sonicated until the solution became clear using a sonic water bath (Bransonic 221, Branson Ultrasonics Corp., USA). Five cycles of freeze-thaw were performed before liposomes were extruded by 4 passages through 200 nm pore diameter polycarbonate membranes (Nuclepore, Costar, Mass., USA). Free calcein was removed from calcein encapsulated into liposomes by gel exclusion chromatography using a Sephadex G-50 column (3 cm×14 cm) and a 200 mM NaCl, 25 mM HEPES, pH 7.3 solution as the elution buffer. The final lipid concentration was determined by a phosphorus assay (Bartlett, 1959, J. Biol. Chem. 234, 466-469). Liposomes' diameter was determined by dynamic laser light scattering using a Coulter N4 Plus submicron particle sizer (Coultronics France S. A, France). Measurements were performed within a 3 nm-10000 nm size window with a fixed 90° scattered light angle.
The liposome leakage assay was carried out as described in Planck et al. (1994, J. Biol. Chem. 269, 12918-12924). The liposome stock solution was diluted to a lipid concentration of 45 μM in 1.8× assay buffer (360 mM NaCl, 36 mM sodium citrate, pH 5 and pH 7). A 1:5 serial dilution of the tested peptide was carried out in a 96-well microtiter plate by transferring 20 μl of the peptide solution from one well to the next well and diluting with 80 μl H2O. 100 μl of the liposome solution was added in each well (final lipid concentration: 25 μM) and, after 30 min at room temperature, was assayed for fluorescence at 535 nm (excitation: 485 nm) on a microtiter plate fluorescence spectrometer (WALLAC, 1420 multilabel counter Victor). These conditions are appropriate to analyze fluorescein and as close as possible to the appropriate excitation/ emission profile of calcein (495 nm /515 nm). The value for 100% leakage was obtained by addition of 1 μl of a 10% Triton X-100 solution. Leakage activity was plotted against peptide concentration.
Liposome leakage activities were analyzed on liposomes consisting of POPC and cholesterol at a molar ratio of 3:2 (mol/mol).
Complexes of ppTG1 with plasmid DNA pTG11236 were tested for liposome leakage activity on POPC/chol 3:2 liposomes.
The series of ppTG1 derivatives as they are listed in Materials and Methods was tested for liposome leakage activity on POPC/chol 3:2 liposomes at pH7.

HeLa cells = test: Transfection in vitro, luciferase plasmid pTG11236; type: cell-based; conditions: for transfection / gene transfer efficiency in vitro, in words: HeLa cells, 50 ng pTG11236, increasing charge ratios, day 1
Protocol: Cells were plated on 24 well plates at a density of 4×10^4 (293-EBNA ) or 7×10^4 (HeLa, Renca) cells/well in DMEM supplemented with 10% FCS. The next day, the medium was replaced by 200 μl serum-free DMEM and plasmid (pTG11056 or pTG11236)/peptide complexes or plasmid/peptide/lipid complexes were prepared in 30 μl 0.9% NaCl or 5% glucose. After 20 min at room temperature these complexes were added to the cells which were then incubated for 2-3 h at 37° C. and 5% CO2 before 1 ml serum-containing DMEM was added. Approximately 20-hours later, cells were lysed by addition of 100 μl 1× Promega lysis buffer, 20 μl of the lysates were analysed for luciferase activity. Proteins were quantified with the bicinchonic acid (BCA) colorimetric method (Smith, Anal. Biochem. 150 (1985), 76-85).
In another experiment, 7×10^4 HeLa cells, seeded on 24-well plates the day before transfection, were transfected with 0.5 μg or 0.05 μg pTG11236, complexed with Lipofectin or ppTG1. The plasmid/peptide complexes were prepared in 30 μl of 5% glucose or 0.9% NaCl and added to the cells (200 μl serum-free medium) after 20 min at room temperature. Serum-containing medium was added after 3 h, the cells were harvested the next day.
A comparison of the effect on transfection efficiency of ppTG1 and JTS-1-K13 was carried out in HeLa cells. Complexes of 0.5 μg or 0.05 μg pTG11236 were formed with increasing amounts the respective peptide.
A comparison of ppTG1 and KALA was carried out in HeLa and CHO cells. 5×10^4 cells were seeded on 24 well plates. The next day, cells were transfected with 500 ng and 50 ng of pTG11236, complexed with ppTG1 or KALA in 30 μl 0.9% NaCl. The charge ratio +/− varied from 1, 2, 3, 4, 7 to 10. Cells were harvested 20 h after transfection and lysis was obtained in 100 μl Promega lysis buffer. Luciferase activity and total protein concentrations in 20 μl were determined.
HeLa cells were seeded at a density of 6×10^4 cells on 24 well plates. The next day, cells were incubated with 200 μl serum-free medium, 30 μl of plasmid (50 ng)/peptide/lipid mixtures were added and incubated for 3 h at 37° C. in 5% CO2. 1 ml of DMEM+10% FCS was then added. The next day, the medium was removed and cells were washed with 500 μl of PBS and subsequently treated with 100 μl of Promega lysis buffer. Plates were stored at −80° C. until luciferase activity was measured of 20 μl of the cell lysate. The protein assay was performed using the Pierce BCA kit.
JTS1 was dissolved to 1 mg/ml in 1 mM NaOH and mixed with DNA diluted in 5% glucose. ppTG1 was then added to this solution. The pcTG90/DOPE ppTG1 mixtures were prepared as described in Example 6. Transfection assays were performed on HeLa cells with 50 ng of plasmid as described in Example 6.
The series of ppTG1 derivatives listed in Material and Methods were tested for their gene transfer efficiencies in Hela cells. 6×10^4 cells were transfected with 50 ng pTG11236 complexed with increasing amounts of peptide. Luciferase activity was analyzed day 1 after transfection. The results are shown in FIG. 10B (ppTG20, ppTG21), FIG. 10C(ppTG25, ppTG26, ppTG27), FIG. 10D (ppTG28 to ppTG33), FIG. 10E (PEG-ppTG1 and PEG-ppTG20), FIG. 10F (ppTG22 to ppTG24) and FIG. 10G (ppTG20-D).

plasmid pTG11236 = test: Gel retardation assay (DNA binding)
Protocol: 3μg of the plasmid pTG11236 were incubated with increasing amounts of the respective peptide in a final volume of 30 μl with 0.9% NaCl. After 20 min of incubation at room temperature, 6 μl 5× loading buffer (glycerol and bromphenol blue in TAE buffer) were added and 10 μl of these solutions were analyzed on a 1% agarose gel in the presence of ethidium bromide.
The ability of ppTG1 peptide to complex DNA was analyzed by gel retardation assays. […] After 20 minutes incubation at room temperature, loading buffer was added and 10 μl of the resulting solution were analyzed on a 1% agarose gel.
ppTG1 derivatives as they are indicated in Materials and Methods, were tested for their capacity to bind plasmid DNA by gel retardation assays.

[2] = pH 5 vs pH 7; cited from earlier work
B6SJL mice = conditions: for gene transfer efficiency in the lung, in words: i.v., 50 or 60 μg pTG11236, day 1
Protocol: Indicated amounts of the luciferase expression plasmid pTG11236 were mixed with ppTG1 and /or pcTG90/DOPE. The resulting formulations were injected intramuscularly(30 μl), intravenously(250 μl) into mice or intratumorally (Renca tumors, 100 μgl). Muscles, tumors or organs were recovered at the indicated points of time, macerated and tested for luciferase activity with the luciferase assay kit from Promega.
60 μg or 30 μg of the plasmid pTG11236 were mixed with peptide ppTG1 and/or with a pcTG90/DOPE 1:2 mixture in 250 μl 5% glucose. After 20 min incubation at room temperature, the complexes were intravenously injected into B6SJL mice. Mice were sacrificed at day 1. The lungs were recovered, total protein was extracted and luciferase activity was analysed.
The potential of gene transfer with mono-component peptide vectors was investigated in vivo. Fifty or sixty μg of the luciferase expression plasmid pTG11236 were complexed with pcTG90/DOPE (1:2) [+/−] 10 in 250 μl 5% glucose (Meyer et al. 2000). The resulting lipoplex vector served as reference for gene transfer studies with pTG11236 complexed with ppTG1, ppTG20 and ppTG32 in 250 μl 5% glucose. Five mice per group were intravenously injected, the animals were sacrificed at day 1 after injection. Lungs were tested for luciferase activity.

Substance	liposome leakage activity, in words ([1]; pH7)	transfection / gene transfer efficiency in vitro, in words (HeLa cells)	other results
CGLFKALLKLLKSLWKLLLKA [ppTG23]	slightly reduced membrane destruction	–	–
CGLFKALLKLLKSLWKLLLKAC (cysteine pairing not given here) [ppTG24]	slightly reduced membrane destruction	–	–
GIFKAIIKIIKSIWKIIIKA [ppTG30]	–	diminished gene transfer efficiency in vitro; also recorded: reduced the efficiency of gene transfer	–
GIFRAIIRIIRSIWRIIIRA [ppTG31]	slightly reduced liposome leakage activity	diminished gene transfer efficiency in vitro; also recorded: reduced the efficiency of gene transfer	–
GLFEALLELLESLWELLLEA [reference compound]	reduced	–	retardation of plasmid DNA (plasmid pTG11236; 3 μg pTG11236 and 0.1 μg to 10 μg peptide): not observed; liposome leakage activity, in words ([1]; pH5): high lysis activity; lysis of calcein containing phosphatidylcholine liposomes [2]: capable of lysing calcein containing phosphatidylcholine liposomes at pH 5, more efficiently than at a pH 7
GLFHALLHLLHSLWHLLLHA	comparable to ppTG1	strongly reduced	DNA binding, in words (plasmid pTG11236; pH5): binds plasmid DNA at pH5; also recorded: can bind DNA at pH5
GLFKKLLKLLKKLWKLLLKA [ppTG28]	slightly reduced liposome leakage activity	comparable to ppTG1 and ppTG20; also recorded: did not change transfection efficiencies	–
GLFRALLRLLRSLWRLLLRA [ppTG20]	–	–	toxicity in vivo, in words (B6SJL mice; i.v. injection of peptide/pTG11236 complexes): less toxic than ppTG1
GLFRRLLRLLRRLWRLLLRA [ppTG29]	slightly reduced liposome leakage activity	comparable to ppTG1 and ppTG20; also recorded: did not change transfection efficiencies	–
GVFKAVVKVVKSVWKVVVKA [ppTG32]	diminished liposome leakage activity; also recorded: significantly reduced liposome leakage activity	diminished gene transfer efficiency in vitro	gene transfer efficiency in the lung, in words (B6SJL mice): drastically reduced gene transfer efficiency; also recorded: did not lead to detectable reporter gene expression
GVFRAVVRVVRSVWRVVVRA [ppTG33]	diminished liposome leakage activity; also recorded: significantly reduced liposome leakage activity	diminished gene transfer efficiency in vitro	–
Gly-Leu-Phe-Arg-Ala-Leu-Leu-Arg-Leu-Leu-Arg-Ser-Leu-Trp-Arg-Leu-Leu-Leu-Arg-Ala (GLFRALLRLLRSLWRLLLRA; also: D-amino acids, places not given here) [ppTG20-D]	retained	retained; also recorded: as efficient as ppTG1	–
Gly-Leu-Phe-Glu-Ala-Leu-Leu-Glu-Leu-Leu-Glu-Ser-Leu-Trp-Glu-Leu-Leu-Leu-Glu-Ala-Cys-Cys-Tyr-Lys-Ala-Lys-Lys-Lys-Lys-Lys-Lys-Lys-Lys--Trp-Lys-Lys-Lys-Lys-Gln-Ser (GLFEALLELLESLWELLLEACCYKAKKKKKKKKWKKKKQS; disulfide 21-22) [JTS-1-K13, reference compound]	impeded in calcein release	–	gene transfer efficiency in the lung, in words (B6SJL mice): low; transfection (HeLa cells; 0.05 μg plasmid DNA, FIG. 4): remains low; luciferase expression (HeLa cells; 0.5 μg pTG11236 complexed with 1.5 μg peptide): high level of luciferase expression; liposome leakage activity, in words ([1]; pH5): low level release
WEAKLAKALAKALAKHLAKALAKALKACEA [reference compound]	could not liberate calcein	–	gene transfer efficiency in the lung, in words (B6SJL mice): undetectable; also recorded: inefficient; gene transfer at optimal charge ratio lower than for ppTG1 (HeLa cells; HeLa, 500 ng pTG11236): 4 fold; liposome leakage activity, in words ([1]; pH5): could not liberate calcein
